Assay results as given in US20240190890A1, “MK2 INHIBITORS AND USES THEREOF” (Bristol-Myers Squibb Company, priority 2022, published 2024).

target: p38a activated, mitogen-activated protein kinase-activated protein kinase 2 (MAPKAP-K2 or MK2) enzyme (Homo sapiens (Human), UniProt P49137); assay: MK2 Omnia continuous-read kinase assay for compound potency; format: biochemical; settings: [MK-2]=0.4 nM, [ATP]=10 μM, [ST3-Sox]=10 μM; room temperature
How it was run: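 p38a-activated MK2 (0.4 nM) with 10 μM ATP (apparent Km) and 10 μM S/T3-Sox peptide in Tris pH 7.5 buffer with MgCl2, EGTA and DTT. Fluorescence (ex360/em485) read continuously for 120 min at room temperature. IC50 from initial linear slopes; apparent kinact/KI from kobs of exponential progress-curve fits.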

p38a activated, mitogen-activated protein kinase-activated protein kinase 2 (MAPKAP-K2 or MK2) enzyme, sequence (P49137 whole entry): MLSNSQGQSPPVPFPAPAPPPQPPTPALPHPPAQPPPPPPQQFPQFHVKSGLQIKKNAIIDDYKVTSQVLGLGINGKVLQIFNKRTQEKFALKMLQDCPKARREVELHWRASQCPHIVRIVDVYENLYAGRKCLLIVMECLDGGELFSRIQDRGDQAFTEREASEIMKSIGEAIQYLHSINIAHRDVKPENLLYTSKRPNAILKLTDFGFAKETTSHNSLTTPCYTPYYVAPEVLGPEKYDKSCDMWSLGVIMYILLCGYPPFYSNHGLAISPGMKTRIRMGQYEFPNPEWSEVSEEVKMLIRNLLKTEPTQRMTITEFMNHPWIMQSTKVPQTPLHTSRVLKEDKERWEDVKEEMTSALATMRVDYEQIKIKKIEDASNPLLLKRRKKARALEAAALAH

Question: How did the IC50 turn out when `C=Cc1cc(-c2ccc3c(ccc4sc5c(c43)NC[C@@H](C)NC5=O)n2)c(OC(F)(F)F)cn1` [Example I-245, (R)-10-methyl-3-(5-(trifluoromethoxy)-2-vinylpyridin-4-yl)-9,10,11,12-tetrahydro-8H-[1,4]diazepino[5′,6′:4,5]thieno[3,2-f]quinolin-8-one] was run?
Answer: 74 nM

Question: For `C#Cc1cc(-c2ccc3c(ccc4sc5c(c43)NC[C@@H](C)NC5=O)n2)cc(C2=CCN(C)CC2)n1` [Example I-102, (R)-3-(6-ethynyl-1′-methyl-1′,2′,3′,6′-tetrahydro-[2,4′-bipyridin]-4-yl)-10-methyl-9,10,11,12-tetrahydro-8H-[1,4]diazepino[5′,6′:4,5]thieno[3,2-f]quinolin-8-one], which IC50 is on record?
Answer: 8 nM

Question: Which IC50 does the source give for `C=Cc1cc(-c2ccc3c(ccc4sc5c(c43)NC[C@@H](C)NC5=O)n2)c(CN2C[C@@H](C)O[C@@H](C)C2)cn1` [Example I-213, (R)-3-(5-(((2S,6R)-2,6-dimethylmorpholino)methyl)-2-vinylpyridin-4-yl)-10-methyl-9,10,11,12-tetrahydro-8H-[1,4]diazepino[5′,6′:4,5]thieno[3,2-f]quinolin-8-one] here?
Answer: 103 nM

Question: How did the IC50 turn out when `C=Cc1cc(-c2ccc3c(ccc4sc5c(c43)NC[C@@H](C)NC5=O)n2)c(NC)nn1` [Example I-128, (R)-10-methyl-3-(3-(methylamino)-6-vinylpyridazin-4-yl)-9,10,11,12-tetrahydro-8H-[1,4]diazepino[5′,6′:4,5]thieno[3,2-f]quinolin-8-one] was run?
Answer: 19 nM

Question: How did the IC50 turn out when `C=Cc1nccn1-c1ccc2c(ccc3sc4c(c32)NC[C@@H](CF)NC4=O)n1` [Example I-255, (S)-10-(fluoromethyl)-3-(2-vinyl-1H-imidazol-1-yl)-9,10,11,12-tetrahydro-8H-[1,4]diazepino[5′,6′:4,5]thieno[3,2-f]quinolin-8-one] was run?
Answer: 1 nM

Question: For `C=Cc1cc(-c2ccc3c(ccc4sc5c(c43)NC[C@@H](C)NC5=O)n2)nc(C#CC(C)(C)N)n1` [Example I-66, (R)-3-(2-(3-amino-3-methylbut-1-yn-1-yl)-6-vinylpyrimidin-4-yl)-10-methyl-9,10,11,12-tetrahydro-8H-[1,4]diazepino[5′,6′:4,5]thieno[3,2-f]quinolin-8-one], which IC50 is on record?
Answer: 9 nM

Question: `C#Cc1cc(-c2ccc3c(ccc4sc5c(c43)NC[C@@H](C)NC5=O)n2)cc(N2CCN(C)CC2)n1` [Example I-95, (R)-3-(2-ethynyl-6-(4-methylpiperazin-1-yl)pyridin-4-yl)-10-methyl-9,10,11,12-tetrahydro-8H-[1,4]diazepino[5′,6′:4,5]thieno[3,2-f]quinolin-8-one] was tested. Which IC50 did it give?
Answer: 42 nM

Question: How did the IC50 turn out when `C[C@@H]1CNc2c(sc3ccc4nc(-c5cc(Cl)nc(CO)c5)ccc4c23)C(=O)N1` [Example I-97, (R)-3-(2-chloro-6-(hydroxymethyl)pyridin-4-yl)-10-methyl-9,10,11,12-tetrahydro-8H-[1,4]diazepino[5′,6′:4,5]thieno[3,2-f]quinolin-8-one] was run?
Answer: 60 nM

Question: Which IC50 does the source give for `COc1nnc(/C=C/CN(C)C)cc1-c1ccc2c(ccc3sc4c(c32)NC[C@@H](C)NC4=O)n1` [Example I-145, (R,E)-3-(6-(3-(dimethylamino)prop-1-en-1-yl)-3-methoxypyridazin-4-yl)-10-methyl-9,10,11,12-tetrahydro-8H-[1,4]diazepino[5′,6′:4,5]thieno[3,2-f]quinolin-8-one] here?
Answer: 273 nM

Question: With `C#Cc1cc(-c2ccc3c(ccc4sc5c(c43)NC[C@@H](C)NC5=O)n2)c(C)cn1` [Example I-111, (R)-3-(2-ethynyl-5-methylpyridin-4-yl)-10-methyl-9,10,11,12-tetrahydro-8H-[1,4]diazepino[5′,6′:4,5]thieno[3,2-f]quinolin-8-one] as the compound, how does the IC50 read?
Answer: 104 nM

Question: For `C#Cc1cc(-c2ccc3c(ccc4sc5c(c43)NC[C@@H](C)NC5=O)n2)cc(CN2CCC(OC)CC2)n1` [Example I-122, (R)-3-(2-ethynyl-6-((4-methoxypiperidin-1-yl)methyl)pyridin-4-yl)-10-methyl-9,10,11,12-tetrahydro-8H-[1,4]diazepino[5′,6′:4,5]thieno[3,2-f]quinolin-8-one], which IC50 is on record?
Answer: 40 nM

Question: With `C=Cc1cc(-c2ccc3c(ccc4sc5c(c43)NC[C@@H](C)NC5=O)n2)c(C(F)F)cn1` [Example I-130, (R)-3-(5-(difluoromethyl)-2-vinylpyridin-4-yl)-10-methyl-9,10,11,12-tetrahydro-8H-[1,4]diazepino[5′,6′:4,5]thieno[3,2-f]quinolin-8-one] as the compound, how does the IC50 read?
Answer: 4 nM

Question: `C=Cc1cc(-c2ccc3c(ccc4sc5c(c43)NC[C@@H](C)NC5=O)n2)cc(N2CCC(F)(F)CC2)n1` [Example I-168, (R)-3-(2-(4,4-difluoropiperidin-1-yl)-6-vinylpyridin-4-yl)-10-methyl-9,10,11,12-tetrahydro-8H-[1,4]diazepino[5′,6′:4,5]thieno[3,2-f]quinolin-8-one] was tested. Which IC50 did it give?
Answer: 260 nM

Question: `C=Cc1cc(-c2ccc3c(ccc4sc5c(c43)NC[C@@H](C)NC5=O)n2)cc(N2CCC(F)CC2)n1` [Example I-239, (R)-3-(2-(4-fluoropiperidin-1-yl)-6-vinylpyridin-4-yl)-10-methyl-9,10,11,12-tetrahydro-8H-[1,4]diazepino[5′,6′:4,5]thieno[3,2-f]quinolin-8-one] was tested. Which IC50 did it give?
Answer: 161 nM

Question: For `C[C@@H]1CNc2c(sc3ccc4nc(-c5cc(CN6CCN(C)CC6)nc(Cl)n5)ccc4c23)C(=O)N1` [Example I-87, (R)-3-(2-chloro-6-((4-methylpiperazin-1-yl)methyl)pyrimidin-4-yl)-10-methyl-9,10,11,12-tetrahydro-8H-[1,4]diazepino[5′,6′:4,5]thieno[3,2-f]quinolin-8-one], which IC50 is on record?
Answer: 283 nM

Question: With `C#Cc1cc(-c2ccc3c(ccc4sc5c(c43)NC[C@@H](C)NC5=O)n2)c(C#N)cn1` [Example I-162, (R)-6-ethynyl-4-(10-methyl-8-oxo-9,10,11,12-tetrahydro-8H-[1,4]diazepino[5′,6′:4,5]thieno[3,2-f]quinolin-3-yl)nicotinonitrile] as the compound, how does the IC50 read?
Answer: 2 nM

Question: `C#Cc1cc(-c2ccc3c(ccc4sc5c(c43)NC[C@@H](C)NC5=O)n2)cc(CO)n1` [Example I-98, (R)-3-(2-ethynyl-6-(hydroxymethyl)pyridin-4-yl)-10-methyl-9,10,11,12-tetrahydro-8H-[1,4]diazepino[5′,6′:4,5]thieno[3,2-f]quinolin-8-one] was tested. Which IC50 did it give?
Answer: 60 nM

Question: How did the IC50 turn out when `C=C(F)c1cc(-c2ccc3c(ccc4sc5c(c43)NC[C@@H](C)NC5=O)n2)ccn1` [Example I-108, (R)-3-(2-(1-fluorovinyl)pyridin-4-yl)-10-methyl-9,10,11,12-tetrahydro-8H-[1,4]diazepino[5′,6′:4,5]thieno[3,2-f]quinolin-8-one] was run?
Answer: 122 nM

Question: How did the IC50 turn out when `C[C@@H]1CNc2c(sc3ccc4nc(-c5ccnc(Cl)n5)ccc4c23)C(=O)N1` [Example I-8, (R)-3-(2-chloropyrimidin-4-yl)-10-methyl-9,10,11,12-tetrahydro-8H-[1,4]diazepino[5′,6′:4,5]thieno[3,2-f]quinolin-8-one] was run?
Answer: 75 nM

Question: `C=Cc1cc(-c2ccc3c(ccc4sc5c(c43)NC[C@@H](C)NC5=O)n2)cc(CN2CCC(OC)CC2)n1` [Example I-121, (R)-3-(2-((4-methoxypiperidin-1-yl)methyl)-6-vinylpyridin-4-yl)-10-methyl-9,10,11,12-tetrahydro-8H-[1,4]diazepino[5′,6′:4,5]thieno[3,2-f]quinolin-8-one] was tested. Which IC50 did it give?
Answer: 11 nM

Question: `C[C@@H]1CNc2c(sc3ccc4nc(-c5nc(Cl)ncc5CO)ccc4c23)C(=O)N1` [Example I-75, (R)-3-(2-chloro-5-(hydroxymethyl)pyrimidin-4-yl)-10-methyl-9,10,11,12-tetrahydro-8H-[1,4]diazepino[5′,6′:4,5]thieno[3,2-f]quinolin-8-one] was tested. Which IC50 did it give?
Answer: 470 nM

Question: How did the IC50 turn out when `[2H]C([2H])([2H])C(O)c1cnc(C=C)cc1-c1ccc2c(ccc3sc4c(c32)NC[C@@H](C)NC4=O)n1` (stereo partly drawn) [Example I-260, (10R)-3-(5-(1-hydroxyethyl-2,2,2-d3)-2-vinylpyridin-4-yl)-10-methyl-9,10,11,12-tetrahydro-8H-[1,4]diazepino[5′,6′:4,5]thieno[3,2-f]quinolin-8-one] was run?
Answer: 16 nM

Question: `C[C@@H]1CNc2c(sc3ccc4nc(-c5nc(Cl)cc(N6CCN(C)CC6)n5)ccc4c23)C(=O)N1` [Example I-43, (R)-3-(4-chloro-6-(4-methylpiperazin-1-yl)pyrimidin-2-yl)-10-methyl-9,10,11,12-tetrahydro-8H-[1,4]diazepino[5′,6′:4,5]thieno[3,2-f]quinolin-8-one] was tested. Which IC50 did it give?
Answer: 440 nM

Question: With `C#Cc1cc(-c2ccc3c(ccc4sc5c(c43)NC[C@@H](C)NC5=O)n2)cc(N2CC(F)(F)C2)n1` [Example I-183, (R)-3-(2-(3,3-difluoroazetidin-1-yl)-6-ethynylpyridin-4-yl)-10-methyl-9,10,11,12-tetrahydro-8H-[1,4]diazepino[5′,6′:4,5]thieno[3,2-f]quinolin-8-one] as the compound, how does the IC50 read?
Answer: 839 nM

Question: `C=Cc1ncc(CO)c(-c2ccc3c(ccc4sc5c(c43)NC[C@@H](C)NC5=O)n2)n1` [Example I-77, (R)-3-(5-(hydroxymethyl)-2-vinylpyrimidin-4-yl)-10-methyl-9,10,11,12-tetrahydro-8H-[1,4]diazepino[5′,6′:4,5]thieno[3,2-f]quinolin-8-one] was tested. Which IC50 did it give?
Answer: 13 nM

Question: How did the IC50 turn out when `C=Cc1cc(-c2ccc3c(ccc4sc5c(c43)NC[C@@H](C)NC5=O)n2)c(CN2CCC(C(F)(F)F)CC2)cn1` [Example I-212, (R)-10-methyl-3-(5-((4-(trifluoromethyl)piperidin-1-yl)methyl)-2-vinylpyridin-4-yl)-9,10,11,12-tetrahydro-8H-[1,4]diazepino[5′,6′:4,5]thieno[3,2-f]quinolin-8-one] was run?
Answer: 92 nM

Question: `CC#Cc1ncc(F)c(-c2ccc3c(ccc4sc5c(c43)NC[C@@H](C)NC5=O)n2)n1` [Example I-44, (R)-3-(5-fluoro-2-(prop-1-yn-1-yl)pyrimidin-4-yl)-10-methyl-9,10,11,12-tetrahydro-8H-[1,4]diazepino[5′,6′:4,5]thieno[3,2-f]quinolin-8-one] was tested. Which IC50 did it give?
Answer: 1000 nM
